The source of these data is US20030176444A1, “Cytokine production inhibitors” (priority 2000, published 2003).

Assay [1] deals with TNF-alpha production by lipopolysaccharide-stimulated macrophages. Description: Effect on TNF-alpha production by lipopolysaccharide-stimulated macrophages (ELISA). In kind it is cell-based, C3H/HeNCrj mice. Particulars: five-hour culture. The protocol: Effect on TNF-Alpha Production by Lipopolysaccharide-Stimulated Macrophages Gatifloxacin was added to a culture medium at a concentration of 1, 10, or 100 μg/mL. One mL of 3% thioglycolate culture medium (Sigma) was intraperitoneally administered to C3H/HeNCrj mice (male, 11 weeks old) to induce macrophages. Six days after the administration, the animals were sacrificed, and then 10 mL of sterile RPMI 1640 (GIBCO BRL; 10% FBS-RPMI) containing 100 U/mL penicillin-100 μg/mL streptomycin (GIBCO BRL) and 10 v/v % fetal bovine serum (FBS) was intraperitoneally injected. After gentle massage of the abdomen, the 10% FBS-RPMI was collected from the abdomen cavity. After the collected 10% FBS-RPMI was centrifuged, the supernatant was removed and the peritoneal exudate cells including macrophages were harvested. The harvested peritoneal exudate cells were suspended in 10% FBS-RPMI at a concentration of […], and the suspension was plated in each well of a 24-well plate. After incubation for 1.5 hours, non-adherent cells were washed out with 10% FBS-RPMI, and macrophages adhering to the plate were obtained. […] Each content of TNF-alpha in the culture supernatant was determined by using an enzyme immunoassay (ELISA).
In general terms: An ELISA detects its analyte on a solid surface through an enzyme-linked reagent.

Assay [2] concerns methicillin-resistant Staphylococcus aureus (MRSA) O-271 strain ocular infection. Briefly: Rabbit ocular infection: scoring of corneal and conjunctival findings. Format: in vivo, Japanese White Rabbits. The protocol: Antiinflammatory Effects on Rabbit Ocular Infection
(§1) The subject substances used for the test include […], 0.3 w/v % and 0.5 w/v % gatifloxacin eye drops. The control substances used include a 0.3 w/v % ofloxacin eye drop, a 0.5 w/v % levofloxacin eye drop and a physiological saline.
(§2) Japanese White Rabbits (male, 1.74 to 2.30 kg in weight) were generally anesthetized, and then 30 μL of 3.1×10^5 CFU/mL methicillin-resistant Staphylococcus aureus (MRSA) O-271 strain suspension was injected into a corneal stroma of each rabbit via a 27 gauge injection needle attached to a 100 μL microsyringe.
(§3) Five hours and 24 hours after the bacterial inoculation, 50 μL of each test substance was instillated into the rabbit eye using a micropipet. In the observation carried out 8, 16, 24, 32, and 48 hours after the bacterial inoculation, symptoms such as opacity of cornea, and redness and edema of conjunctiva were observed and scored based on the criteria as shown in Table 1. Each rabbit was sacrificed 52 hours after the bacterial inoculation, and then the eyeball was enucleated and cornea and conjunctiva were cut out. These tissue sections were morcellated in 2 mL of a physiological saline, diluted, and plated onto a Mueller-Hinton agar medium, and then the viable bacterial number was determined by counting the colonies formed after 48 hours.

For assay [3], the system named is methicillin-resistant Staphylococcus aureus (MRSA) O-271 strain. Briefly: Rabbit ocular infection: viable bacterial number in corneal and conjunctival tissues. In kind it is in vivo, Japanese White Rabbits. Particulars: for Viable Bacterial Number (CFU/Cornea): 52 hours after inoculation, average. The protocol: as §1, §2, §3

Structures are written as SMILES.

Consider `COc1c(N2CCNC(C)C2)c(F)cc2c(=O)c(C(=O)O)cn(C3CC3)c12` (racemic) [Gatifloxacin, (±)-1-cyclopropyl-6-fluoro-1,4-dihydro-8-methoxy-7-(3-methyl-1-piperazinyl-4-oxo-3-quinolinecarboxylic acid], for which, in assay [1] (in combination with LPS 1 μg/mL, Williams' test), the “concentration significantly suppressing the increase in TNF-alpha content” value is ≥ 1 µg/mL. Moreover, in assay [1] (mouse peritoneal macrophages, LPS 1 μg/mL, gatifloxacin 1, 10 or 100 μg/mL), the “inhibition of LPS-stimulated TNF-alpha production (TNF-alpha content of culture supernatant)” value is reported as “dose-dependently inhibited”. The “symptoms of the corneal infection (total cornea score)” value in assay [2] (0.1, 0.3 and 0.5 w/v % eye drops, 50 μL at 5 and 24 h after inoculation, observed until 48 hours) is reported as “dose-dependently inhibited”; in assay [2] (0.5 w/v % eye drop, until 48 hours after inoculation), “strong inhibitory effect”. In addition, the “conjunctival findings (total conjunctiva score)” value in assay [2] (0.3 w/v % and 0.5 w/v % eye drops, after 32 hours) is listed as “stronger inhibitory effect than the ofloxacin or the levofloxacin eye drop group”; in assay [2] (0.5 w/v % eye drop, after 48 hours) it was “significantly stronger inhibitory effect than the 0.5 w/v % levofloxacin eye drop group”. Further, in assay [2] (eye drop concentration of 0.3 w/v % or more, vs 0.3 w/v % ofloxacin eye drop), the “symptoms of the corneal infection (total cornea score), comparison with ofloxacin” value is given as “stronger inhibitory effect than the 0.3 w/v % ofloxacin eye drop group”. The “Viable Bacterial Number (CFU/Cornea)” value in assay [3] (0.1% eye drop) is recorded as 1.3 × 10^4 CFU/Cornea; in assay [3] (0.3% eye drop), 1.1 × 10^3 CFU/Cornea; in assay [3] (0.5% eye drop) it was 3.9 × 10^2 CFU/Cornea. Moreover, the “viable bacterial number in the corneal tissue (in words)” value in assay [3] (0.1, 0.3 and 0.5 w/v % eye drop groups) is recorded as “decreased dose-dependently”; in assay [3] (0.5 w/v % eye drop), “greatly decreased”.
In the case of `C[C@H]1COc2c(N3CCN(C)CC3)c(F)cc3c(=O)c(C(=O)O)cn1c23` [Levofloxacin], in assay [3] (0.5% eye drop), the “Viable Bacterial Number (CFU/Cornea)” value was 4.4 × 10^2 CFU/Cornea.
As for `CC1COc2c(N3CCN(C)CC3)c(F)cc3c(=O)c(C(=O)O)cn1c23` (centres unmarked) [Ofloxacin], in assay [3] (0.3% eye drop), the “Viable Bacterial Number (CFU/Cornea)” value is given as 2.0 × 10^5 CFU/Cornea.
